In patent publication US20250000873A1, “INHALED ILOPROST FOR RESCUE TREATMENT AND TREATMENT AS NEEDED IN PULMONARY HYPERTENSION” (JUSTUS-LIEBIG-UNIVERSITAET GIESSEN, priority 2021, published 2025):
Entries after “also recorded” stand apart in the source; their conditions may differ.

How the values were obtained:
[1] = tested on: patients with pulmonary arterial hypertension; assay: Clinical pilot study of iloprost PRN, hemodynamics by intracardiac catheter and tolerability; type: in vivo, human
Experimental: A clinical pilot study to evaluate the feasibility of iloprost PRN was conducted with 4 patients. Eligible were male and female patients with pulmonary arterial hypertension in the age from 18 to 70 years having a mean pulmonary arterial blood pressure (PAP) higher than 25 mm Hg, a pulmonary vascular resistance (PVR) higher than 240 dyn*s*cm−5, a central venous pressure (CVP) higher than 3 mm Hg, and a pulmonary capillary wedge pressure (PCWP) lower than 12 mm Hg. Patients were therapy-naïve, or were receiving PH-specific medication (endothelin receptor antagonists, phosphodiesterase type 5 inhibitors, prostacyclin analogues) alone or in combination. Patients were monitored by ECG, pulse oxymetry, and non-invasive blood pressure measurement. An intracardiac catheter was introduced into the distal pulmonary artery to measure PAP, CVP, PCWP, and cardiac output. Also measured were the heart rate, systemic arterial pressure (SAP), systemic vascular resistance (SVR), central arterial and venous blood gases. After the initial determination of all parameters the reactivity of the pulmonary vasculature to oxygen (2 to 4 L/min) and nitric oxide (20 ppm) was tested. Subsequently, patients inhaled a single dose of 2.5 μg of nebulized iloprost in two breaths, using a prototype of a soft mist inhaler filled with iloprost in a concentration of 50 μg/ml. Hemodynamic parameters and clinical condition of the patients were assessed before and 1, 5, 15 and 30 minutes after inhalation. In the absence of adverse effects, a second inhalation maneuver with 4 breaths corresponding to a dose 5 μg iloprost was performed, again followed by an observation period of at least 30 minutes.

[2] = tested on: hemodynamic parameters of pulmonary circulation; details: conventional nebulizers, administered over 10 minutes; cited from earlier work

CC#CCC(C)[C@H](O)/C=C/[C@@H]1[C@H]2C/C(=C/CCCC(=O)O)C[C@H]2C[C@H]1O (stereo partly drawn) [iloprost, 5-{(E)-(1S,5S,6R,7R)-7-hydroxy-6[(E)-(3S,4RS)-3-hydroxy-4-methyl-1-octen-6-inyl]-bicyclo[3.3.0]octan-3-ylidene}pentanoic acid]
Tolerability of the treatment ([1]; inhaled 2.5 μg (2 breaths) then 5 μg (4 breaths), prototype soft mist inhaler, iloprost 50 μg/ml, 4 patients): all patients tolerated the treatment well
Systemic side effects (SAP and SVR changes) ([1]; inhaled 2.5 μg or 5 μg, soft mist inhaler prototype, n=4): without significant systemic side effects
Onset of therapeutic pulmonary vascular effects (PAP and PVR changes) ([1]; rapid inhalation of 2.5 μg or 5 μg (2 or 4 puffs à 1.25 μg), soft mist inhaler prototype, n=4): already seen within only one minute after rapid iloprost inhalation; also recorded: already registered one minute after finishing the inhalation maneuver
Time of maximum therapeutic effects on hemodynamic parameters of pulmonary circulation after end of inhalation [2]: approximately 5 minutes
